Measurements from US6537754B1, “Association of kinesin with sensitivity to chemotherapeutic drugs” (Board of Trustees of the University of Illinois, priority 1990, dated 2003).
Starred links: 1 amine or outer side, 2 acyl side, 3 side chain; linkers in the order of their positions; H or OH if unused. Positions of bridges follow the written chain, without caps; N, C: chain ends. Non-standard residues stand in square brackets, D forms with d. Residues, ends and D or L forms follow the SMILES beside them. Chains are numbered I, II in the order given. Actinocin(9to1) = Cc1c2oc3c(C)ccc(C(=O)[*:1])c3nc-2c(C(=O)[*:2])c(N)c1=O; NMeV = CN[C@H](C(=O)O)C(C)C; Sar = CNCC(=O)O

Columns and labels:
NIH 3T3 cells [1] = assay: long-term growth inhibition assays (cytostatic and cytotoxic effects), cells carrying anti-khcs GSE vs control; assay type: cell-based, mouse; details: for resistance or sensitivity of GSE-carrying cells to the drug, long-term assay: four days in drug, then two or six days without drug, anti-khcs cells vs control; for sensitivity of anti-khcs GSE cells to the drug (surviving cells as percentage of growth without drug): 2x10^4 cells per dish, five days in drug, FIGS. 12A and 12B
Procedure: Cells were incubated with the drugs for 4 days, followed by 2 or […] in drug-free media, as indicated. Cell growth, presented in arbitrary units, was evaluated by methylene blue staining.
To further characterize the nature of drug resistance conferred by anti-khcs, the above-described short-term growth inhibition assays were followed by long-term growth inhibition assays which measured both the cytostatic and the cytotoxic effects of different drugs. These assays were carried out by incubating the cells for four days in the presence of the drugs, followed by either two or six days in the absence of the drug, to allow for programmed cell death, which is frequently associated with recovery from drug-induced inhibition (Kung et al., 1990, Cancer Res. 50: 7307-7317).
Thus, in the experiment shown in FIGS. 12A and 12B, NIH 3T3 cells carrying the anti-khcs GSE and control cells without the GSE were plated at a density of 2×10^4 per culture dish and grown for five days in concentrations of either colchicine or vinblastine. The cells were then fixed and stained, and the number of surviving cells determined and shown as a percentage of cell growth in the absence of drug.

NIH 3T3 cells [2] = assay: short-term (4-day) growth inhibition assay, methylene blue staining, cells carrying anti-khcs GSE vs insert-free vector control; assay type: cell-based, mouse; details: NIH 3T3 infected with anti-khcs virus vs insert-free vector; 4 days drug exposure
Procedure: Drug concentrations are given in ng/mL.
A 1:1 mixture of ecotropic and amphotropic packaging cells was transfected with retroviral vector pLNCX carrying the anti-khcs GSE using a standard calcium phosphate procedure. […] This virus-containing supernatant was used to infect NIH 3T3 cells, 10 times with 12 hour intervals. Control cells were infected in parallel with the insert-free vector virus obtained by the same procedure. […] DNA from the infected cells was analyzyed by Southern blot hybridization with a virus-specific probe.
The infected cell population described in Example 7 were analyzed for resistance to several anticancer drugs by a growth inhibition assay. For this assay, 10^4 cells per well were plated in 12-well plated and exposed to increasing concentrations of different drugs for 4 days. Relative cell numbers were measured by the methylene blue staining assay (Perry et al., 1992, Mutation Res. 286: 189-197). […] All of these drugs are known to induce DNA damage, albeit by different mechanism.

NIH 3T3 cells [3] = assay: dynamics of cell growth during and after drug treatment, anti-khcs GSE cells vs control; assay type: cell-based, mouse; details: for effect of the drug in continuous presence / cell death after removal of the drug: 250 ng/mL etoposide, 20 ng/mL camptothecin, 40 ng/mL colchicine; for effect of anti-khcs GSE on the growth-inhibitory effect of the drug: 5 or 11 days continuous exposure, anti-khcs cells vs control; for cell death after removal of the drug: control cells; for cell death after removal of the drug / effect of anti-khcs GSE on cell death after release from the drug: drug removed after 5 days; for overall change in drug resistance conferred by anti-khcs GSE, release vs continuous exposure: long-term, 11 days
Procedure: Cell growth was measured as described for FIGS. 12A and 12B. Cells were plated and one day later (indicated by the first arrow) the indicated drugs were added at concentrations as described. Four days later (indicated by the second arrow), the drugs were removed from some of the plates. Solid lines indicate cell growth in the continuous presence of the drug, and broken lines indicate cell growth after removal of the drug.
In these experiments (shown in FIGS. 13A through 13D), NIH 3T3 cells were treated with the corresponding drugs for 5 days, and then incubated for additional 6 days either in the presence or in the absence of the drug. […] After 11 days of drug exposure the total cell number in the etoposide- or camptothecin-treated populations of control cells was a little lower than after 5 days of drug exposure, but in the colchicine-treated control cell population a slow cell growth was still detectable. In the experiments where the drug was removed after 5 days, cell growth was initially activated for all three drugs.
The expression of the anti-khcs GSE had different effects on the growth inhibition and recovery-associated cell death induced by these drugs.

NIH 3T3 cells [4] = assay: etoposide selection after retroviral transduction of GSEs; assay type: cell-based, mouse; details: recloned proviral inserts in LNCX vector
Procedure: This selection was carried out directly on virus-producing packaging cells, in the expectation that cells whose resistant phenotype is caused by the GSE expression will produce virus particles carrying such a GSE. The mixture of amphotropic and ecotropic packaging cells was transfected with the cDNA library in the LNCX vector, prepared according to Example 1, and the virus was allowed to spread through the population for 9 days.
The proviral inserts contained in the etoposide-selected NIH 3T3 cells were analyzed by PCR. […] Individual PCR-amplified fragments were recloned into the LNCX vector in the same position and orientation as in the original plasmid, as illustrated in FIG. 4C. […] These GSEs wee named anti-khcs, VPA and VP9-11.

NIH 3T3 cells [5] = assay: etoposide resistance with GSE under IPTG-inducible promoter; assay type: cell-based, mouse; details: 5 mM IPTG; IPTG-dependent; vs insert-free vector
From the text: The components of this system include an enhancer-dependent promoter, combined in cis with multiple repeats of the bacterial lac operator, and a gene expressing LAP265, an artificial regulatory protein derived from the lac repressor and a mammalian transcriptional activator. The anti-khcs GSE was cloned into the plasmid pX6.CLN, which contains the inducible promoter used by Baim et al., supra (a gift of Dr. T. Shenk) which expresses the inserts from an enhancerless SV40 early gene promoter supplemented with 21 repeats of the lac operator sequence. The resulting plasmid, which contains no selectable markers, was co-transfected into NIH 3T3 cells together with the LNCX plasmid carrying the neo gene.

[6] = tested on: primary mouse embryo fibroblasts (MEF); assay: life span / immortalization of senescent primary fibroblasts after infection with GSE virus; assay type: cell-based
Procedure: The virus carrying the anti-khcs GSE was treated for the ability to increase the life span of primary mouse embryo fibroblasts (MEF). MEF were prepared from 10 day old mouse embryos by a standard trypsinization procedure and senescent cells were frozen at different passages prior to crisis. Senescent MEF, two weeks before crisis, were infected with recombinant retroviruses carrying LNCX vector either without an insert or with anti-khcs.

[7] = tested on: primary human fibroblasts; assay: life span of primary human skin fibroblasts after infection with GSE virus; assay type: cell-based
Procedure: Primary human fibroblasts, derived from human skin, were obtained from the Aging Cell Repository of the National Institutes of Aging. The cells were grown in DMEM with 20% fetal calf serum supplemented with twice the concentration of amino acids and vitamins normally used to supplement normal human skin fibroblast growth in culture. Cells at the fifth passage were infected with either the control pLNCX virus or the virus carrying mouse anti-khcs GSE (produced as described above in Example 3).

NIH 3T3 cells [8] = assay: growth parameters of multiply-infected cells; assay type: cell-based, mouse; details: multiple integrated provirus copies; normalised after several passages
From the text: A 1:1 mixture of ecotropic and amphotropic packaging cells was transfected with retroviral vector pLNCX carrying the anti-khcs GSE using a standard calcium phosphate procedure. Two weeks later, the virus titer, as measured by the formation of G418- resistance NIH 3T3 colonies, reached >10^6 infectious units per mL as a result of “ping-pong” infection (see Bodine et al., 1990, Proc. Natl. Acad. Sci. USA 87: 3738-3742). This virus-containing supernatant was used to infect NIH 3T3 cells, 10 times with 12 hour intervals. Control cells were infected in parallel with the insert-free vector virus obtained by the same procedure. […] DNA from the infected cells was analyzyed by Southern blot hybridization with a virus-specific probe.
At this stage, the cells were frozen and used for the experiments described below.

## COc1cccc2c1C(=O)c1c(O)c3c(c(O)c1C2=O)C[C@@](O)(C(=O)CO)C[C@@H]3O[C@H]1C[C@H](N)[C@H](O)[C@H](C)O1 [Adriamycin, doxorubicin]
NIH 3T3 cells [1]
  resistance or sensitivity of GSE-carrying cells to the drug, long-term assay: resistant

## Cc1c2oc3c(C)ccc(C(=O)N[C@@H]4C(=O)N[C@H](C(C)C)C(=O)N5CCC[C@H]5C(=O)N(C)CC(=O)N(C)[C@@H](C(C)C)C(=O)O[C@@H]4C)c3nc-2c(C(=O)N[C@@H]2C(=O)N[C@H](C(C)C)C(=O)N3CCC[C@H]3C(=O)N(C)CC(=O)N(C)[C@@H](C(C)C)C(=O)O[C@@H]2C)c(N)c1=O [actinomycin D] (I: T[dV]P[Sar][NMeV] / II: T[dV]P[Sar][NMeV]; ester I:1-I:C, II:1-II:C; linker I:N-II:N via Actinocin(9to1))
NIH 3T3 cells [2]
  change in resistance to the cytostatic effects of the drug induced by anti-khcs GSE: no increase in resistance was observed

## CC[C@@]1(O)C(=O)OCc2c1cc1n(c2=O)Cc2cc3ccccc3nc2-1 [camptothecin]
NIH 3T3 cells [3]
  effect of the drug in continuous presence: growth inhibition but little detectable cell death
  effect of anti-khcs GSE on the growth-inhibitory effect of the drug: small decrease of the growth-inhibitory effect
  cell death after removal of the drug: extensive cell death
  effect of anti-khcs GSE on cell death after release from the drug: slight increase in cell death
  overall change in drug resistance conferred by anti-khcs GSE, release vs continuous exposure: no significant long-term difference

## COc1cc2c(c(OC)c1OC)-c1ccc(OC)c(=O)cc1[C@@H](NC(C)=O)CC2 [colchicine]
NIH 3T3 cells [2]
  change in resistance to the cytostatic effects of the drug induced by anti-khcs GSE: no increase in resistance was observed
NIH 3T3 cells [1]
  sensitivity of anti-khcs GSE cells to the drug (surviving cells as percentage of growth without drug): hypersensitivity
  resistance or sensitivity of GSE-carrying cells to the drug, long-term assay: hypersensitive
NIH 3T3 cells [3]
  effect of the drug in continuous presence: growth inhibition but little detectable cell death
  effect of anti-khcs GSE on the growth-inhibitory effect of the drug: more susceptible to the growth-inhibitory effect
  cell death after removal of the drug: only limited cell death

## COc1cc([C@@H]2c3cc4c(cc3[C@@H](O[C@@H]3O[C@@H]5CO[C@@H](C)O[C@H]5[C@H](O)[C@H]3O)[C@H]3COC(=O)[C@H]23)OCO4)cc(OC)c1O [etoposide]
NIH 3T3 cells [1]
  resistance or sensitivity of GSE-carrying cells to the drug, long-term assay: resistant
NIH 3T3 cells [3]
  effect of the drug in continuous presence: growth inhibition but little detectable cell death
  effect of anti-khcs GSE on the growth-inhibitory effect of the drug: decreased the growth-inhibitory effect of the drug to the same, relatively small extent
  cell death after removal of the drug: extensive cell death
  effect of anti-khcs GSE on cell death after release from the drug: decreased the amount of cell death
  overall change in drug resistance conferred by anti-khcs GSE, release vs continuous exposure: much more pronounced after release from the drug

## CC[C@]1(O)C[C@@H]2CN(CCc3c([nH]c4ccccc34)[C@@](C(=O)OC)(c3cc4c(cc3OC)N(C)[C@H]3[C@@](O)(C(=O)OC)[C@H](OC(C)=O)[C@]5(CC)C=CCN6CC[C@]43[C@@H]65)C2)C1 [vinblastine]
NIH 3T3 cells [1]
  sensitivity of anti-khcs GSE cells to the drug (surviving cells as percentage of growth without drug): hypersensitivity
  resistance or sensitivity of GSE-carrying cells to the drug, long-term assay: hypersensitive

B1: anti-khcs: genetic suppressor element encoding antisense RNA for mouse kinesin heavy chain gene khcs (SEQ.ID.No.:3), in LNCX retroviral vector (nucleic acid)
antisense: CTTGATCCCTTCTGGTTGATGCCAGAAGCTCTTCCTGATCCAGCATTTGTATCTTCAATTTCTCTACCAATTGGCTTTGTTGGTTAATCTCTTCATCCTTGTCATCAAGTTGTTTATACAATTTAGCAAGTTCTTCTTCACACTTTCTTCTTTCAGCATCGGTAAAACTACCAGCCATTCCGACTGCAGCAGCTGGTTTATCACTGGTAATAGCAATATCTTTATCCGCTGTGAAGGCTTCCAAATTAGCTTTCTCTTTGTCAAACTGCTCATCAATAGGCACTGTCTCCCCGTTACGCCAACGGTTTAGCTCGTTTTCCAGCCACT
modifications: in LNCX retroviral vector
NIH 3T3 cells [4]
  ability to confer etoposide resistance after retroviral transduction: induce etoposide resistance
NIH 3T3 cells [5]
  etoposide resistance of transfectants: clearly increased etoposide resistance
[6]; microscopic
  features of neoplastic transformation in post-crisis cells: no microscopically visible features of neoplastic transformation
[6]; relative to uninfected MEF or control LNCX virus, two weeks after crisis
  proportion of cells surviving the crisis: great increase
[7]; after control cells went into crisis
  additional passages survived: at least five
[7]; infected at fifth passage, four passages later
  growth when control cells went into crisis: continued to grow
NIH 3T3 cells [8]
  growth rate and plating efficiency of freshly-obtained multiply-infected cells: decreased growth rate and plating efficiency
